# Assay results from patent US10662156B2, “Guanidine derivative and medical use thereof” (Toray Industries, Inc., priority 2016, dated 2020).
# System: imiquimod-induced psoriasis mouse models
# Experiment: Suppressive effect on auricular hypertrophy in imiquimod-induced psoriasis mouse model
# Type: in vivo, BALB/c male mice
# Conditions: for change in the thickness of the auricle (increase): post-induction days 4 to 7, post-induction day 8 vs before induction, vehicle group 198 μm; for change in the thickness of the auricle compared to the vehicle administration group (in words): P<0.05
# Description: The guanidine derivative (I) or the pharmacologically acceptable salt thereof was evaluated for its exertion of a therapeutic effect on psoriasis, one type of autoimmune disease, in an in vivo experimental system using imiquimod-induced psoriasis mouse models in accordance with the method described in the literature (The Journal of Dermatological Science, 2014, Vol. 76, No. 2, p. 96-103). Specifically, the evaluation was conducted by verifying the suppressive effect of the compound on auricular hypertrophy by using, as an index, the thickness of the auricle increased with the progression of symptoms in imiquimod-induced psoriasis models.
# Seven-week-old BALB/c male mice (Charles River Laboratories Japan, Inc.) were preliminarily bred and then used at the age of 8 weeks. To induce psoriasis-like symptoms, 5 mg/ear of Beselna Cream 5% was applied (imiquimod dose: 0.25 mg/body/day) to both the ears of each mouse once a day for 8 days from the date of initial administration of imiquimod (hereinafter, referred to as post-induction day 0) to post-induction day 7. A dosing vehicle was prepared by adding Tween 20 to a 0.5% (w/v) aqueous methylcellulose solution to attain a final concentration of 0.025% (v/v). A test compound was suspended in the dosing vehicle to prepare a drug solution. The drug solution was orally administered (dosing volume: 10 mL/kg) twice a day (a.m. and p.m.) for 4 days from post-induction days 4 to 7. The test compound used was the compound of Example 2, and groups given the compound of Example 2 were designated as Example 2 compound administration groups. A group given only the dosing vehicle in the same way as above was established as a vehicle administration group.
# The thickness of the auricle before imiquimod administration (before induction) at the date of induction and the thickness of the auricle at post-induction day 8 were measured using a digital micrometer (Mitsutoyo Corp.), and the change therebetween (the thickness of the auricle at post-induction day 8—the thickness of the auricle before induction) was used as an index for drug efficacy evaluation. Statistical analysis was carried out using statistical analysis software EXSAS (ver. 7.6). As a result of studying homoscedasticity among the groups by the Bartlett's test, the variance was homogeneous. Therefore, the parametric Dunnett test (two-tailed) was carried out. As for the drug dependence of the drug efficacy of the compound of Example 2 on auricular hypertrophy, as a result of studying homoscedasticity between the vehicle group and each compound administration group by the Bartlett's test, the variance was homogeneous. Therefore, the Williams test (two-tailed) was carried out. P<0.05 was confirmed as significant difference.
# The ordinate of the drawing depicts the change in the thickness of the auricle (μm), and the abscissa depicts each administration group. The term “Compound of Example 2” depicts the Example 2 compound administration groups.
smiles,measurement,setting,value
"Cl.N/C(=N\S(=O)(=O)c1ccccc1)NCc1cnc(-c2ccc(Cl)cc2)c(-c2ccc(Cl)cc2)c1 [Compound of Example 2, N-(amino(((5,6-bis(4-chlorophenyl)pyridin-3-yl)methyl)amino)methylene)benzenesulfonamide Hydrochloride]",change in the thickness of the auricle (increase),7.5 mg/kg orally twice a day,179 μm
same,change in the thickness of the auricle (increase),15 mg/kg orally twice a day,131 μm
same,change in the thickness of the auricle compared to the vehicle administration group (in words),15 mg/kg orally twice a day,significantly decreased
same,change in the thickness of the auricle (increase),30 mg/kg orally twice a day,118 μm
same,change in the thickness of the auricle compared to the vehicle administration group (in words),30 mg/kg orally twice a day,significantly decreased
